Target: T1, OX2R (Homo sapiens, UniProt O43614)
T1 construct: expressed in transfected cells; host or cells: CHO (Chinese hamster ovary) cells constitutively expressing the OX2R gene and NFAT-luciferase (CHOOX2R)
T1 sequence (O43614 1-444): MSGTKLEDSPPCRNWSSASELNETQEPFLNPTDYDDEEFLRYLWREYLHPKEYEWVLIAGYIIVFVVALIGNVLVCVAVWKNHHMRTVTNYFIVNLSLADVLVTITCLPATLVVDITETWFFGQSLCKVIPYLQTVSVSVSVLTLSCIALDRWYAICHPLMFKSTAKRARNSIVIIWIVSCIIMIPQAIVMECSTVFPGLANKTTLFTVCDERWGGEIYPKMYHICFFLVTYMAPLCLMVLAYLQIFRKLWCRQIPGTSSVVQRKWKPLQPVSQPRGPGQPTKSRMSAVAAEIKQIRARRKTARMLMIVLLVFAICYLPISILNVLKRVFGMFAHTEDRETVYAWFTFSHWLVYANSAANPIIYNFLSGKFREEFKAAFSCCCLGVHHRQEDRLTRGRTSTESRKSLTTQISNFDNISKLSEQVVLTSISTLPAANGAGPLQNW
Assay: Evaluation of agonist activity against OX2R (CHOOX2R cells, Fura2AM fluorescence, FDSS3000)
Assay type: cell-based
Settings: relative to orexin-A as full agonist (100%), CHOOX2R cells; for Response (0.1 μM (%)): test compound 0.1 μM; for Response (1.0 μM (%)): test compound 1.0 μM; for Response (10 μM (%)): test compound 10 μM
Summary of the method: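 CHO cells stably expressing human OX2R (and NFAT-luciferase), cultured 48 h in 5% FBS DMEM. Agonist response read as change in Fura2AM fluorescence on compound addition in HEPES buffer. Final compound concentrations 0.1, 1.0 or 10 μM; 1% DMSO.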

| Structure (SMILES) | Response (0.1 μM (%)) | Response (1.0 μM (%)) | Response (10 μM (%)) |
| --- | --- | --- | --- |
| COc1ccccc1C(=O)NCCNc1cccc(NS(=O)(=O)c2cc(-c3cccc(C(=O)N(C)C)c3)ccc2C)c1 [Example 106, 3′-(N-(3-((2-(2-methoxybenzamido)ethyl)amino)phenyl)sulfamoyl)-N,N,4′-trimethyl-[1,1′-biphenyl]-3-carboxamide] | <5% | 27% | 39% |
| COc1ccccc1C(=O)NCCNc1cccc(NS(=O)(=O)c2cc(-c3cccc(C(=O)N(C)C)c3)ccc2F)c1 [Example 107, 4′-fluoro-3′-(N-(3-((2-(2-methoxybenzamido)ethyl)amino)phenyl)sulfamoyl)-N,N-dimethyl-[1,1′-biphenyl]-3-carboxamide] | 65% | 79% | 82% |
| CCOc1ccc(-c2cccc(C(=O)N(C)C)c2)cc1S(=O)(=O)Nc1cccc(NCCNC(=O)c2ccccc2OC)c1 [Example 108, 4′-ethoxy-3′-(N-(3-((2-(2-methoxybenzamido)ethyl)amino)phenyl)sulfamoyl)-N,N-dimethyl-[1,1′-biphenyl]-3-carboxamide] | 44% | 81% | 82% |

Next, values leading:

| Response (0.1 μM (%)) | Response (1.0 μM (%)) | Response (10 μM (%)) | Structure (SMILES) |
| --- | --- | --- | --- |
| 13% | 46% | 47% | COc1ccccc1C(=O)NCCNc1cccc(NS(=O)(=O)c2cc(-c3cccc(F)c3)ccc2OC)c1 [Example 109, N-(2-((3-(3′-fluoro-4-methoxy-[1,1′-biphenyl]-3-ylsulfonamido)phenyl)amino)ethyl)-2-methoxybenzamide] |
| <5% | <5% | 28% | COc1ccccc1C(=O)NCCNc1cccc(NS(=O)(=O)c2cccc(-c3cccc(C(=O)N(C)C)c3)c2)c1 [Example 110, 3′-(N-(3-((2-(2-methoxybenzamido)ethyl)amino)phenyl)sulfamoyl)-N,N-dimethyl-[1,1′-biphenyl]-3-carboxamide] |
| <5% | 131% | 139% | COc1ccccc1C(=O)NCCN(C)c1cccc(NS(=O)(=O)c2cc(-c3cccc(C(=O)N(C)C)c3)ccc2OC)c1 [Example 112, 4′-methoxy-3′-(N-(3-((2-(2-methoxybenzamido)ethyl) (methyl)amino)phenyl)sulfamoyl)-N,N-dimethyl-[1,1′-biphenyl]-3-carboxamide] |

Reference: US9815787B2, “Sulfonamide derivative or pharmaceutically acceptable acid addition salt thereof” (UNIVERSITY OF TSUKUBA, priority 2013, dated 2017)
